The text below walks through data of patent publication US7326700B2, “Cyclohexenyl phenyl carboxamides tocolytic oxytocin receptor antagonists” (Wyeth, priority 2001, dated 2008).

The term inhibition denotes how much of the control response was suppressed. High values mean a strong effect, low ones a weak effect. A word on the IC50: it is the concentration that gives 50% inhibition. Broadly, the melting point is the temperature, or range, at which the solid turns liquid.

One data set addresses T1, human vasopressin V2 receptor subtype (Homo sapiens, UniProt P30518).
T1 construct: host or cells: CHO cells, stably transfected (pZeoSV vector)
The data set can be described thus: Vasopressin binding in CHO cell membranes expressing human vasopressin V2 subtype receptors ([3H]arginine vasopressin radioligand binding). To be noted: 100 nM. An excerpt:
Chinese Hamster Ovary (CHO) cells stably transfected with the human V2 subtype receptors were obtained from M. Thibonnier, Case Western Reserve University School of Medicine, Cleveland, Ohio.
CHO cells transfected with the human vasopressin V2 subtype receptors obtained from M. Thibonnier (pZeoSV vector) are allowed to grow to confluency (approx. >90%) in T-150 flasks under sterile conditions, in a cell culture medium consisting of F-12 Nutrient Mixture (HAM) with L-glutamine (Gibco Cat. #11765-054) containing 15 mM HEPES (Gibco Cat. #15630-080), 1% antibiotic/antimycotic (add 5 mL 100×, Gibco Cat. #15240-062 per 500 mL F-12), 250 μg/mL Zeocin (add 1.25 mL of 100 mg/mL Invitrogen R-250-01 per 500 mL F-12) and 10% Fetal Bovine Serum (Qualified, heat inactivated, Gibco Cat. #16140-063). The medium is removed by aspiration and the cells washed with 10 mL of Hank's Balanced Salt solution (Gibco Cat. #14175-095). The salt solution is removed by aspiration and the cells trypsinized with 5 mL of trypsin-EDTA (0.05% trypsin, 0.53 mM EDTA-4Na, Gibco Cat. #25300-070) for 1 min. The trypsin is removed by aspiration and the cells dislodged by tapping. Cell Culture medium (e.g. 30 mL for 1:30 split) is immediately added and mixed well to inactivate trypsin. 1 mL of detached cells is added to new culture flasks containing fresh Cell Culture medium (e.g. into 25 mL per T-150 flask), and mixed gently. The cells are incubated at 37° C. in 5% CO2. The medium is changed at 3 to 4 day interval (or as appropriate). The cells grow to confluency (approx. >75%-95%) within 7-8 days. All steps are done under sterile conditions.
The cells are washed twice gently with Hank's Balanced Salt solution (e.g. use 10 mL per T-150 flask). The excess solution is removed and the cells bathed for 15-30 min. in an enzyme-free Cell Dissociation Buffer (e.g. use 8 mL Hank's Based, Gibco Cat. #13150-016 per T-150 flask) until cells are loosened. The contents are transferred to centrifuge tubes (50 mL) kept in an ice bath. All subsequent steps are done at 4° C. The tubes are centrifuged at 300×g for 15 min (1380 rpm on SORVAL, Model RT6000D, using the rotor for 50 mL tubes). The supernatant is discarded and the cells suspended in homogeneizing buffer(10 mM Tris-HCl containing 0.25 M sucrose and 1 mM EDTA, pH 7.4) ensuring that the volume of the buffer is about ten times the volume of the cell pellet. The cells are pooled into a centrifuge tube (50 mL) and homogenized with Polytron at setting 6 for 10 sec. The homogenate is transferred into a Potter-Elvjehm homogeneizer and homogenized with 3 strokes. The homogenate is centrifuged at 1500×g for 60 min at 4° C. (3100 rpm using SORVAL, model RT6000D, using the rotor for 50 mL tubes). The pellet is discarded. The supernatant is centrifuged at 100,000×g for 60 min. at 4° C. (Beckman L8-80M ultracentrifuge; spin at 37,500 rpm with rotor type 70 Ti for 50 mL tubes; 38,000 rpm with type 80 Ti for 15 mL tubes; or 35,800 rpm with rotor type 45Ti). The supernantant is discarded and the pellet suspended in 3 to 4 mL of Tris buffer (50 mM TRIS-HCl, pH 7.4). The protein content is estimated by the Bradford or Lowry method. The volume of the membrane suspension is adjusted with the membrane buffer (50 mM Tris-HCl containing 0.1% BSA and 0.1 mM PMSF) to give 3.0 mg/mL (or as appropriate) of protein. The membranes are aliquoted and stored at −70° C.
In wells of a 96-well format microtiter plate, is added 90, 110 or 130 μL (to make up a final volume of 200 μL) of assay buffer containing 50 mM of Tris-HCl (pH 7.4), […], 1 mg % aprotinin, 1 mg % leupeptin, 2 mg % 1,10-phenanthroline, 10 mg % trypsin inhibitor, and 0.1 mM PMSF. The inhibitors are added on the day of the experiment. The components are mixed at room temperature, and then kept in ice bath following adjustment of the pH to 7.4. […]
Compound `Cc1cc(C(=O)N2Cc3ccc(C(=O)N4CCN(CCCN(C)C)CC4)n3Cc3ccccc32)ccc1C1=CCCCC1` [Example 5, [10-(4-Cyclohex-1-en-1-yl-3-methyl-benzoyl)-10,11-dihydro-5H-pyrrolo[2,1-c][1,4]benzodiazepin-3-yl]-[4-(3-dimethylamino-propyl)-piperazin-1-yl]-methanone] gave an inhibition at 0.1 µM of 19%.
For the compound `Cc1cc(C(=O)N2Cc3ccc(C(=O)N4CCN(CCN5CCOCC5)CC4)n3Cc3ccccc32)ccc1C1=CCCCC1` [Example 23, {10-[4-(1-Cyclohex-1-en-1-yl)-3-methylbenzoyl]-10,11-dihydro-5H-pyrrolo[2,1-c][1,4]benzodiazepin-3-yl}{4-[2-(4-morpholinyl)ethyl]-1-piperazinyl}methanone], the “V2 % inhibition @ 100 nM” value worked out at 18%.
`Cc1cc(C(=O)N2Cc3ccc(C(=O)N4CCN(C)CC4)n3Cc3ccccc32)ccc1C1=CCCCC1` [Example 4, [10-(4-Cyclohex-1-en-1-yl-3-methyl-benzoyl)-10,11-dihydro-5H-pyrrolo[2,1-c][1,4]benzodiazepin-3-yl]-(4-methyl-piperazin-1-yl)-methanone] showed an inhibition at 0.1 µM of 11%.
`COc1cc(C2=CCCCC2)c(Cl)cc1C(=O)N1Cc2ccc(C(=O)N(C)CCCN(C)C)n2Cc2ccccc21` [Example 2, 10-(5-Chloro-4-cyclohex-1-en-1-yl-2-methoxybenzoyl)-N-[3-(dimethylamino)propyl]-N-methyl-10,11-dihydro-5H-pyrrolo[2,1-c][1,4]benzodiazepine-3-carboxamide] yielded an inhibition at 0.1 µM of 4%.
Regarding `Cc1cc(C(=O)N2Cc3ccc(C(=O)N4CCN(C(C)C)CC4)n3Cc3ccccc32)ccc1C1=CCCCC1` [Example 25, {10-[4-(1-Cyclohex-1-en-1-yl)-3-methylbenzoyl]-1 0,11-dihydro-5H-pyrrolo[2,1-c][1,4]benzodiazepin-3-yl}(4-isopropyl-1-piperazinyl)methanone], the “V2 % inhibition @ 100 nM” value was 10%.
On the same count and under the same terms, as for `Cc1cc(C(=O)N2Cc3ccc(C(=O)N4CCC(N5CCCCC5)CC4)n3Cc3ccccc32)ccc1C1=CCCCC1` [Example 17, {10-[4-(1-Cyclohex-1-en-1-yl)-3-methylbenzoyl]-10,11-dihydro-5H-pyrrolo[2,1-c][1,4]benzodiazepin-3-yl}[4-(1-piperidinyl)-1-piperidinyl]methanone], the figure is 2%.
`CC1=C(c2ccc(C(=O)N3Cc4ccc(C(=O)N5CCN(C)CC5)n4Cc4ccccc43)cc2C)CCC[C@H]1O` [Example 11, [4-((3R)-3-Hydroxy-2-methyl-cyclohex-1-en-1-yl)-3-methyl-phenyl]-[3-(4-methyl-piperazine-1-carbonyl)-10,11-dihydro-5H-pyrrolo [2,1-c][1,4]benzodiazepin-10-yl]-methanone] displayed an inhibition at 0.1 µM of 14%.
For the compound `Cc1cc(C(=O)N2Cc3ccc(C(=O)N4CCN(C)CC4)n3Cc3ccccc32)ccc1C1=CCCc2ccccc21` [Example 6, {10-[4-(3,4-Dihydro-naphthalen-1-yl)-3-methyl-benzoyl]-10,11-dihydro-5H-benzo[e]pyrrolo[1,2-a][1,4]diazepin-3-yl}-(4-methyl-piperazin-1-yl)-methanone], 0.1 µM produced 17% inhibition.
As to `Cc1cc(C(=O)N2Cc3ccc(C(=O)N4CCN(CCCN(C)C)CC4)n3Cc3ccccc32)ccc1C1=CCCc2ccccc21` [Example 7, {10-[4-(3,4-Dihydro-naphthalen-1-yl)-3-methyl-benzoyl]-10,11-dihydro-5H-pyrrolo[2,1-c][1,4]benzodiazepin-3-yl}-[4-(3-dimethylamino-propyl)-piperazin-1-yl]-methanone], the inhibition at 0.1 µM worked out at 30%.
With `Cc1cc(C(=O)N2Cc3ccc(C(=O)NCCN4CCCCC4)n3Cc3ccccc32)ccc1C1=CCCCC1` [Example 20, 10-[4-(1-Cyclohex-1-en-1-yl)-3-methylbenzoyl]-N-[2-(1-piperidinyl)ethyl]-10,11-dihydro-5H-pyrrolo[2,1-c][1,4]benzodiazepine-3-carboxamide], the “V2 % inhibition @ 100 nM” value came to 14%.
On the same count and under the same terms, the result for `Cc1cc(C(=O)N2Cc3ccc(C(=O)N4CCCN(C)CC4)n3Cc3ccccc32)ccc1C1=CCCCC1` [Example 13, {10-[4-(1-Cyclohex-1-en-1-yl)-3-methylbenzoyl]-10,11-dihydro-5H-pyrrolo[2,1-c][1,4]benzodiazepin-3-yl}(4-methyl-1,4-diazepan-1-yl)methanone] reads 3%; that for `Cc1cc(C(=O)N2Cc3ccc(C(=O)NCCCN(C)C)n3Cc3ccccc32)ccc1C1=CCCCC1` [Example 14, 10-[4-(1-Cyclohex-1-en-1-yl)-3-methylbenzoyl]-N-[3-(dimethylamino)propyl]-10,11-dihydro-5H-pyrrolo[2,1-c][1,4]benzodiazepine-3-carboxamide], 5%.
Still for that read-out and setting: the result for `Cc1cc(C(=O)N2Cc3ccc(C(=O)N(C)CCN(C)C)n3Cc3ccccc32)ccc1C1=CCCCC1` [Example 15, 10-[4-(1-Cyclohex-1-en-1-yl)-3-methylbenzoyl]-N-[2-(dimethylamino)ethyl]-N-methyl-10,11-dihydro-5H-pyrrolo[2,1-c][1,4]benzodiazepine-3-carboxamide] reads 5%.

The same data set, now with this note: value in parentheses.
Consider `COc1cc(C2=CCCCC2)c(Cl)cc1C(=O)N1Cc2ccc(C(=O)N3CCC[C@H]3CN3CCCC3)n2Cc2ccccc21` [Example 1, 4-Chloro-5-cyclohex-1-en-1-yl-2-[(3-{[(2S)-2-(pyrrolidin-1-ylmethyl)pyrrolidin-1-yl]carbonyl}-5H-pyrrolo [2,1-c][1,4]benzodiazepin-10(11H)-yl)carbonyl]phenyl methyl ether], for which the IC50 is above 3000 nM.
The same measure, in the same setting: the result for “{10-[4-(1-Cyclohexen-1-yl)-3-methylbenzoyl]-10,11-dihydro-5H-pyrrolo[2,1-c][1,4]benzodiazepin-3-yl}(4-methyl-piperazin-1-yl)methanone [Example 12]” reads above 1000 nM.

Test system in a further data set: not given
Experiment: not given
Details: not given
On to `COc1cc(C2=CCCCC2)c(Cl)cc1C(=O)N1Cc2ccc(C(=O)N3CCC[C@H]3CN3CCCC3)n2Cc2ccccc21` [Example 1, 4-Chloro-5-cyclohex-1-en-1-yl-2-[(3-{[(2S)-2-(pyrrolidin-1-ylmethyl)pyrrolidin-1-yl]carbonyl}-5H-pyrrolo [2,1-c][1,4]benzodiazepin-10(11H)-yl)carbonyl]phenyl methyl ether], for which the melting point lay within 109 to 121 °C.
Take `CC1=C(c2ccc(C(=O)N3Cc4ccc(C(=O)N5CCN(C)CC5)n4Cc4ccccc43)cc2C)CCC[C@H]1O` [Example 11, [4-((3R)-3-Hydroxy-2-methyl-cyclohex-1-en-1-yl)-3-methyl-phenyl]-[3-(4-methyl-piperazine-1-carbonyl)-10,11-dihydro-5H-pyrrolo [2,1-c][1,4]benzodiazepin-10-yl]-methanone]: the melting point lay in the range of 102 to 153 °C.
